# Data from US4904590A, “Antibiotic A80915 and process for its production” (Eli Lilly and Company, priority 1988, dated 1990).
# Like-named read-outs stand apart in the source and are kept apart here.
# What was measured:
# [1] = system: Fusobacterium necrophorum 6054A; experiment: Susceptibility of anaerobic bacterial isolates (MIC), agar-dilution; type: cell-based
# [2] = system: Clostridium septicum 1128; experiment: as above; type: cell-based; settings: 24-hour incubation
# Procedure: The A80915 antibiotics also are active against anaerobic bacteria. […] End points were read after 24-hour incubation.
# [3] = system: Bacteriodes vulgatis 1211; experiment: as above; type: cell-based
# [4] = system: Trichomonas vaginalis; experiment: Anti-protozoan activity (MIC); type: cell-based
# [5] = system: Bacteriodes fragilis 1936B; experiment: Susceptibility of anaerobic bacterial isolates (MIC), agar-dilution; type: cell-based
# [6] = system: Eubacterium aerofaciens 1235; experiment: as above; type: cell-based; settings: Collinsella aerofaciens, 1235, 24 h
# [7] = system: Fusobacterium symbiosum 1470; experiment: as above; type: cell-based
# [8] = system: Staphylococcus epidermis 222; type: cell-based; settings: Staphylococcus epidermis 222; agar-dilution; read-out: MIC
# Procedure: (§1) The A80915 antibiotics inhibit the growth of bacteria which are pathogenic to animal life. […] The MIC's in Table III were determined by conventional agar-dilution assays.
# [9] = system: Streptococcus sp.; type: cell-based; settings: Veterinary organism Streptococcus sp.; agar-dilution
# Procedure: as §1
# [10] = system: Streptococcus pyogenes C203; type: cell-based; settings: Streptococcus pyogenes C203; agar-dilution; read-out: MIC
# Procedure: as §1
# [11] = system: Escherichia coli; type: cell-based; settings: Veterinary organism Escherichia coli; agar-dilution
# Procedure: as §1
# [12] = system: Pasteurella hemolytica; type: cell-based; settings: Veterinary organism Pasteurella hemolytica; agar-dilution
# Procedure: as §1
# [13] = system: Salmonella typhimurium; type: cell-based; settings: Salmonella enterica; Veterinary organism Salmonella typhimurium; agar-dilution
# Procedure: as §1
# [14] = system: Bordetella bronchiseptica; type: cell-based; settings: Veterinary organism Bordetella bronchiseptica; agar-dilution
# Procedure: as §1
# [15] = system: Mycoplasma hyopneumoniae; type: cell-based; settings: Mesomycoplasma hyopneumoniae; Veterinary organism Mycoplasma hyopneumoniae; agar-dilution
# Procedure: as §1
# [16] = system: Staphylococcus aureus X1.1; type: cell-based; settings: Staphylococcus aureus X1.1; agar-dilution; read-out: MIC
# Procedure: as §1
# [17] = system: Staphylococcus epidermis EPI1; type: cell-based; settings: Staphylococcus epidermis EPI1; agar-dilution; read-out: MIC
# Procedure: as §1
# [18] = system: Streptococcus faecium X66; type: cell-based; settings: Enterococcus faecium; Streptococcus faecium X66; agar-dilution; read-out: MIC
# Procedure: as §1
# [19] = system: Gram-negative; type: cell-based; settings: agar-dilution
# Procedure: as §1
# [20] = system: Staphylococcus sp.; type: cell-based; settings: Veterinary organism Staphylococcus sp.; agar-dilution
# Procedure: as §1
# [21] = system: Staphylococcus aureus V41; type: cell-based; settings: Staphylococcus aureus V41; agar-dilution; read-out: MIC
# Procedure: as §1
# [22] = system: Streptococcus faecium 2041; type: cell-based; settings: Enterococcus faecium; Streptococcus faecium 2041; agar-dilution; read-out: MIC
# Procedure: as §1
# [23] = system: Pasteurella multocida; type: cell-based; settings: Veterinary organism Pasteurella multocida; agar-dilution
# Procedure: as §1
# [24] = system: Streptococcus pneumoniae Park1; type: cell-based
# Procedure: as §1
# [25] = system: Staphylococcus aureus X400; type: cell-based; settings: Staphylococcus aureus X400; agar-dilution; read-out: MIC
# Procedure: as §1
# [26] = system: Mycoplasma gallisepticum; type: cell-based; settings: Mycoplasmoides gallisepticum; Veterinary organism Mycoplasma gallisepticum; agar-dilution
# Procedure: as §1
# [27] = Acute toxicity in mice, intraperitoneal injection; settings: mouse, in vivo, ip
# From the text: The acute toxicity of the A80915 antibiotics in mice, when administered by intraperitoneal injection and expressed as LD50, is shown in Table V.
# [28] = system: Peptococcus asaccharolyticus 1302; experiment: Susceptibility of anaerobic bacterial isolates (MIC), agar-dilution; type: cell-based
# [29] = system: Clostridium perfringens 81; experiment: microbe, parasite or virus in culture; type: cell-based; settings: Clostridium perfringens, 81, 24 h
# [30] = system: Bacteriodes fragilis 111; experiment: Susceptibility of anaerobic bacterial isolates (MIC), agar-dilution; type: cell-based
# [31] = system: Peptococcus prevoti 1281; experiment: as above; type: cell-based; settings: 24 h
# [32] = system: Bacteriodes fragilis 1877; experiment: as above; type: cell-based
# [33] = system: Trichomonas foetus; experiment: Anti-protozoan activity (MIC); type: cell-based; settings: Tritrichomonas foetus
# [34] = system: Candida albicans; experiment: Anti-fungal activity (MIC); type: cell-based
# [35] = system: Bacteriodes thetaiotaomicron 1438; experiment: Susceptibility of anaerobic bacterial isolates (MIC), agar-dilution; type: cell-based
# [36] = system: Peptostreptococcus intermedius 1264; experiment: as above; type: cell-based; settings: Peptostreptococcus, 1264, 24 h
# [37] = system: Peptostreptococcus anaerobius 1428; experiment: as above; type: cell-based
# [38] = system: Bacteriodes corrodens 1874; experiment: as above; type: cell-based
# [39] = system: Bacteriodes melaninogenicus 1856/28; experiment: as above; type: cell-based
# [40] = system: Clostridium difficile 2994; experiment: as above; type: cell-based; settings: Clostridioides difficile, 2994, 24 h
# [41] = system: Propionibacterium acnes 79; experiment: as above; type: cell-based
# [42] = system: Bacteriodes melaninogenicus 2736; experiment: as above; type: cell-based
# [43] = Spontaneous loss of nitrogen on standing in solvent; type: physicochemical; settings: standing at room temperature in a solvent such as methanol, ethanol or water
# From the text: Loss of nitrogen is accelerated by, for example, heating or the addition of salts or mild reducing agents such as sodium hyposulfite, and the like.
compound,measurement,setting,value
C=C1CCC(Cl)C(C)(C)C1CC12OC(C)(C)C(Cl)CC1(Cl)C(=O)c1c(cc(O)c(C)c1O)C2=O (stereo not shown) [A80915A],MIC,"[1]; Fusobacterium necrophorum 6054A, agar-dilution, 24-hour incubation, read-out: MIC",> 128 µg/mL
same,MIC,[2],4 µg/mL
same,MIC,"[3]; Bacteriodes vulgatis 1211, agar-dilution, 24-hour incubation, read-out: MIC",> 128 µg/mL
same,MIC,[4],12.5 µg/mL
same,MIC,"[5]; Bacteriodes fragilis 1936B, agar-dilution, 24-hour incubation, read-out: MIC",> 128 µg/mL
same,MIC,[6],4 µg/mL
same,MIC,"[7]; Fusobacterium symbiosum 1470, agar-dilution, 24-hour incubation, read-out: MIC",> 128 µg/mL
same,MIC,[8],2 µg/mL
same,MIC,[9],0.2 µg/mL
same,MIC,[10],32 µg/mL
same,MIC,[11],> 50 µg/mL
same,MIC,[12],> 50 µg/mL
same,MIC,[13],> 50 µg/mL
same,MIC,[14],> 50 µg/mL
same,MIC,[15],3.12 µg/mL
same,MIC,[16],2 µg/mL
same,MIC,[17],2 µg/mL
same,MIC,[18],2 µg/mL
same,MIC,[19],> 128 µg/mL
same,MIC,[20],0.1 µg/mL
same,MIC,[21],2 µg/mL
same,MIC,[22],8 µg/mL
same,MIC,[23],3.12 µg/mL
same,MIC,"[24]; Streptococcus pneumoniae Park1, agar-dilution, read-out: MIC",32 µg/mL
same,MIC,[25],2 µg/mL
same,MIC,[26],0.78 µg/mL
same,LD50,[27],212 mg/kg
same,MIC,"[28]; Peptoniphilus asaccharolyticus, Peptococcus asaccharolyticus 1302, agar-dilution, 24-hour incubation, read-out: MIC",16 µg/mL
same,MIC,[29],4 µg/mL
same,MIC,"[30]; Bacteriodes fragilis 111, agar-dilution, 24-hour incubation, read-out: MIC",> 128 µg/mL
same,MIC,[31],4 µg/mL
same,MIC,"[32]; Bacteriodes fragilis 1877, agar-dilution, 24-hour incubation, read-out: MIC",> 128 µg/mL
same,MIC,[33],50 µg/mL
same,MIC,[34],> 40 µg/mL
same,MIC,"[35]; Bacteriodes thetaiotaomicron 1438, agar-dilution, 24-hour incubation, read-out: MIC",> 128 µg/mL
same,MIC,[36],4 µg/mL
same,MIC,"[37]; Peptostreptococcus anaerobius 1428, agar-dilution, 24-hour incubation, read-out: MIC",> 128 µg/mL
same,MIC,"[38]; Bacteriodes corrodens 1874, agar-dilution, 24-hour incubation, read-out: MIC",> 128 µg/mL
same,MIC,"[39]; Bacteriodes melaninogenicus 1856/28, agar-dilution, 24-hour incubation, read-out: MIC",2 µg/mL
same,MIC,[40],4 µg/mL
same,MIC,"[41]; Cutibacterium acnes, Propionibacterium acnes 79, agar-dilution, 24-hour incubation, read-out: MIC",32 µg/mL
same,MIC,"[42]; Bacteriodes melaninogenicus 2736, agar-dilution, 24-hour incubation, read-out: MIC",> 128 µg/mL
C=C1CCC(Cl)C(C)(C)C1CC12OC(C)(C)C(Cl)CC1(Cl)C(=O)c1c(O)c(C)c([O-])c([N+]#N)c1C2=O (stereo not shown) [A80915B],loss of nitrogen (stability),[43],spontaneously lose nitrogen
same,MIC,"[1]; Fusobacterium necrophorum, 6054A, 24 h",> 128 µg/mL
same,MIC,[2],> 128 µg/mL
same,MIC,[3]; 24 h,> 128 µg/mL
same,MIC,[4],6.25 µg/mL
same,MIC,[5]; 24 h,> 128 µg/mL
same,MIC,[6],> 128 µg/mL
same,MIC,"[7]; Fusobacterium, 1470, 24 h",> 128 µg/mL
same,MIC,[8],2 µg/mL
same,MIC,[9],0.1 µg/mL
same,MIC,[10],8 µg/mL
same,MIC,[11],> 50 µg/mL
same,MIC,[12],12.5 µg/mL
same,MIC,[13],> 50 µg/mL
same,MIC,[14],> 50 µg/mL
same,MIC,[15],3.12 µg/mL
same,MIC,[16],2 µg/mL
same,MIC,[17],2 µg/mL
same,MIC,[18],8 µg/mL
same,MIC,[19],> 128 µg/mL
same,MIC,[20],< 0.05 µg/mL
same,MIC,[21],2 µg/mL
same,MIC,[22],8 µg/mL
same,MIC,[23],0.2 µg/mL
same,MIC,"[24]; Streptococcus pneumoniae, PARK1",8 µg/mL
same,MIC,[25],2 µg/mL
same,MIC,[26],0.1 µg/mL
same,LD50,[27],75 mg/kg
same,MIC,"[28]; Peptoniphilus asaccharolyticus, 1302, 24 h",128 µg/mL
same,MIC,[29],> 128 µg/mL
same,MIC,[30]; 24 h,> 128 µg/mL
same,MIC,[31],64 µg/mL
same,MIC,[32]; 24 h,> 128 µg/mL
same,MIC,[33],12.5 µg/mL
same,MIC,[34],5 µg/mL
same,MIC,[35]; 24 h,> 128 µg/mL
same,MIC,[36],128 µg/mL
same,MIC,"[37]; Peptostreptococcus anaerobius, 1428, 24 h",> 128 µg/mL
same,MIC,[38]; 24 h,> 128 µg/mL
same,MIC,[39]; 24 h,128 µg/mL
same,MIC,[40],> 128 µg/mL
same,MIC,"[41]; Cutibacterium acnes, 79, 24 h",128 µg/mL
same,MIC,[42]; 24 h,> 128 µg/mL
